From patent US8614218B2, “Fused bicyclic pyrimidines” (Bayer Intellectual Property GmbH, priority 2007, dated 2013)

Key:
[1] = tested on: phospho-GSK3 (Ser9); assay: Cellular pGSK3 assay (phospho-GSK3 ELISA); type: cell-based; conditions: Homo sapiens, MCF7 cells, 48 h incubation, read-out: Cellular pGSK3 pathway assay
Procedure: In order to study the cellular activity of the compounds according to the present invention, an ELISA-based assay has been established for the phosphorylated protein glycogen synthetase kinase 3 (GSK3). The assay is based on a solid phase sandwich ELISA that detects endogenous levels of phosphorylated GSK3 using a phospho-GSK3 (Ser9) specific antibody (BioSource International, Inc.; Catalog #KHO0461). After incubation with cell lysates, the coated antibody captures the phosphorylated GSK3 protein. Following extensive washing, GSK3 polyclonal antibody is added to detect the captured phospho-GSK3 protein. Secondary antibody (anti-rabbit IgG-HRP) is then used to recognize the bound detection antibody. After the second incubation and washing to remove all the excess anti-rabbit IgG-HRP, a substrate solution is added, which is acted upon by the bound enzyme to produce color. The intensity of this colored product is directly proportional to the concentration of GSK-3β [pS9] present in the original specimen. MCF7 cells (ATCC HTB-22) were seeded into 96 well fate bottom plates at a density of 10000 cells/well. After 24 h 1 μl each of the compound dilutions (test compounds were dissolved as 10 mM solutions in dimethylsulfoxide (DMSO) and subsequently diluted) were added into each well of the 96 well plates and incubated for 48 h at 37° C. in a humidified atmosphere containing 5% CO2. Cells were harvested and lysed in cell extraction buffer (10 mM Tris, pH 7.4, 100 mM NaCl, 1 mM EDTA, 1 mM EGTA, 1 mM NaF, 20 mM Na4P2O7, 2 mM Na3VO4, 1% Triton X-100, 10 vol % glycerol, 0.1 vol % SDS, 0.5 vol % deoxycholate, 1 mM phenylmethylsulfonylfluoride (PMSF)). The lysate were centrifuged for 10 min. at 4° C. and the supernatant were transferred to a new tube. 50 μl of sample diluent (standard diluent buffer, Biosource) were added and 100 μl of cell lysate transferred into the tube and vortexed. 100 μl of each diluted cell lysate were added to the appropriate ELISA well plate and incubated for 3 h at room temperature. The plates were washed 4 times with 1× wash buffer (Biosource). 50 μl of detection antibody (GSK3 (Ser9) detection antibody; BioSource) were added to each well and incubated for 30 min. at room temperature. The washing procedure was repeated between each step. 100 μl of HRP-linked secondary antibody (anti-mouse IgG HRP-linked antibody) were added to each well and incubated for 30 min. at room temperature. 100 μl of TMB substrate (0.05 vol % 3,3′,5,5′ tetramethylbenzidine, 0.1 vol % hydrogen peroxide, complex polypeptides in a buffered solution; Biosource) were added to each well and incubated for 30 min. at room temperature. Finally 100 μl of Stop solution (0.05 vol % α and β unsaturated carbonyl compound) were added to each well and the plate were shaked gently for a few seconds. The absorbance was measured at λ=450 nm (Wallac Victor2; Perkin Elmer, USA) within 30 min. after adding the stop solution.
The analysis of the data was performed using a statistical program (Excel; Microsoft, USA) and the IC50 of pGSK3 inhibition was determined.

[2] = tested on: A549 cells; assay: Cellular proliferation/cytotoxicity assay (Alamar Blue), A549; type: cell-based; conditions: Homo sapiens, 72 h, Alamar Blue (Resazurin), read-out: Anti-proliterative/Cytotoxic activity (A549 cells)
Procedure, shortened: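 OvCAR3 (10000 cells/well) or A549 (2000 cells/well) were dosed 24 h after seeding and exposed for 72 h at 37 °C, 5% CO2, in duplicate or more. Resazurin was added for 4 h and fluorescence read at 544/590 nm. Viability is relative to untreated 0.5% DMSO controls, with IC50 by non-linear regression.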

Row | SMILES | IC50 [1] | IC50 [2]
1 | CC(c1ccc(-c2nc3nccn3cc2-c2ccccc2)cc1)N1CCC(c2n[nH]c(-c3ccccn3)n2)CC1 (racemic) [Example 23, 6-phenyl-7-(4-{1-[4-(5-pyridin-2-yl-1H-1,2,4-triazol-3-yl)piperidin-1-yl]ethyl}phenyl)imidazo[1,2-a]pyrimidine] | > 10 µM | > 10 µM
2 | Fc1cnc2nc(-c3ccc(CN4CCC(c5n[nH]c(-c6cnccn6)n5)CC4)cc3)c(-c3ccccc3)cn12 [Example 24, 3-fluoro-6-phenyl-7-(4-{[4-(5-pyrazin-2-yl-1,2,4-triazol-3-yl)piperidin-1-yl]methyl}phenyl)imidazo[1,2-a]pyrimidine] | 1 to 10 µM | > 10 µM
3 | Fc1cnc2nc(-c3ccc(CN4CCC(c5n[nH]c(-c6ncccn6)n5)CC4)cc3)c(-c3ccccc3)cn12 [Example 25, 3-fluoro-6-phenyl-7-(4-{[4-(5-pyrimidin-2-yl-1H-1,2,4-triazol-3-yl)piperidin-1-yl]methyl}phenyl)imidazo[1,2-a]pyrimidine] | > 10 µM | > 10 µM
4 | Clc1cnn2cc(-c3ccccc3)c(-c3ccc(CN4CCC(c5n[nH]c(-c6ccccn6)n5)CC4)cc3)nc12 [Example 30, 3-Chloro-6-phenyl-5-(4-{[4-(5-pyridin-2-yl-1H-1,2,4-triazol-3-yl)piperidin-1-yl]methyl}phenyl)pyrazolo[1,5-a]pyrimidine] | < 1 µM | < 10 µM
5 | Brc1cnn2cc(-c3ccccc3)c(-c3ccc(CN4CCC(c5n[nH]c(-c6ccccn6)n5)CC4)cc3)nc12 [Example 31, 3-Bromo-6-phenyl-5-(4-{[4-(5-pyridin-2-yl-1H-1,2,4-triazol-3-yl)piperidin-1-yl]methyl}phenyl)pyrazolo[1,5-a]pyrimidine] | < 1 µM | < 10 µM
6 | N#Cc1cnn2cc(-c3ccccc3)c(-c3ccc(CN4CCC(c5n[nH]c(-c6ccccn6)n5)CC4)cc3)nc12 [Example 32, 6-Phenyl-5-(4-{[4-(5-pyridin-2-yl-1H-1,2,4-triazol-3-yl)piperidin-1-yl]methyl}phenyl)pyrazolo[1,5-a]pyrimidine-3-carbonitrile] | < 1 µM | > 10 µM
7 | C#Cc1cnn2cc(-c3ccccc3)c(-c3ccc(CN4CCC(c5n[nH]c(-c6ccccn6)n5)CC4)cc3)nc12 [Example 33, 3-Ethynyl-6-phenyl-5-(4-{[4-(5-pyridin-2-yl-1H-1,2,4-triazol-3-yl)piperidin-1-yl]methyl}phenyl)pyrazolo[1,5-a]pyrimidine] | 1 to 10 µM | < 10 µM
8 | CCc1cnn2cc(-c3ccccc3)c(-c3ccc(CN4CCC(c5n[nH]c(-c6ccccn6)n5)CC4)cc3)nc12 [Example 34, 3-Ethyl-6-phenyl-5-(4-{[4-(5-pyridin-2-yl-1H-1,2,4-triazol-3-yl)piperidin-1-yl]methyl}phenyl)pyrazolo[1,5-a]pyrimidine] | 1 to 10 µM | < 10 µM
9 | Cc1ccnc(-c2nc(C3CCN(Cc4ccc(-c5nc6nccn6cc5-c5ccccc5)cc4)CC3)n[nH]2)c1 [Example 35, 7-[4-({4-[5-(4-Methylpyridin-2-yl)-1H-1,2,4-triazol-3-yl]piperidin-1-yl}methyl)phenyl]-6-phenylimidazo[1,2-a]pyrimidine] | 1 to 10 µM | < 10 µM
10 | Cc1cccc(-c2nc(C3CCN(Cc4ccc(-c5nc6nccn6cc5-c5ccccc5)cc4)CC3)n[nH]2)n1 [Example 36, 7-[4-({4-[5-(6-Methylpyridin-2-yl)-1H-1,2,4-triazol-3-yl]piperidin-1-yl}methyl)phenyl]-6-phenylimidazo[1,2-a]pyrimidine] | < 1 µM | < 10 µM
11 | CCc1nc2nc(-c3ccc(CN4CCC(c5n[nH]c(-c6ccccn6)n5)CC4)cc3)c(-c3ccccc3)cn2n1 [Example 40, 2-Ethyl-6-phenyl-5-(4-{[4-(5-pyridin-2-yl-1H-1,2,4-triazol-3-yl)piperidin-1-yl]methyl}phenyl)[1,2,4]triazolo[1,5-a]pyrimidine] | < 1 µM | < 10 µM
